Experimental data reported in ChEMBL document CHEMBL3507680, “University of Dundee, Gates Library screen for HepG2 cell viability”.

Assay: Human HepG2 cell viability assay in 384 well format
Format: toxicity, cell-based
Design: dose 125 nL, time 70.5 hour; concentration not given beside the values
Conditions: HepG2 cells, read-out: Inhibition

SMILES	cytotoxicity at 70.5 h
Cc1ccc(C(=O)Nc2ccc(S(=O)(=O)/N=C3\CCCN3C)cc2)s1	-10%
CC(CC#N)NC(=O)c1cc(Br)c2c(c1)OCCO2 (configuration not stated)	0.544%
O=C1CC2(CCCCN2C(=O)c2ccncc2)CN1CC1CC1 (configuration not stated)	1.69%
O=C(NCCn1cccc1)c1c(O)cc(F)cc1F	-6.2%
CC(C)(C)c1nc(CN2CCc3onc(-c4cccc(F)c4)c3C2)no1	-12.1%
Cc1nc(CC(=O)N2CCCC(N(C)Cc3ccccc3)C2)cs1 (configuration not stated)	1.48%
O=C(NC1CC1)[C@H]1CN(Cc2ccccc2)C[C@@H]1C(=O)c1ccccc1	-3.57%
O=C(c1cc(-n2cnnn2)ccc1Cl)N1CCOCC1	-21.4%
CCNC(=O)c1ccnc(NCC2COc3cc(OC)ccc3C2)c1 (configuration not stated)	-3.26%
CCc1nc2n(n1)CC(NCc1cnc(N(CC)CC)s1)CC2 (configuration not stated)	-18.7%
CN1CCN(Cc2cccnc2)C2(CCN(Cc3ccccn3)C2)C1=O (configuration not stated)	-7.04%
Cc1ccc(CC(=O)N2CCCC2Cn2nc(C)cc2C)cn1 (configuration not stated)	-11.5%
Cc1cccc(-c2nc(CN(Cc3cccs3)CC3CCCO3)no2)c1 (configuration not stated)	-1.72%
CC(C)NC(=O)NCc1ccccc1NS(=O)(=O)c1ccccc1	12.7%
Cc1cnn(CC2CCCCN2C(=O)c2ccc(C#N)c(C)n2)c1 (configuration not stated)	-0.947%
CCS(=O)(=O)N1CCC(c2nnc(CN3CCCC3)n2C2CC2)CC1	-11.4%
COCCNC(=O)C1CN(Cc2nccs2)Cc2ccnn2C1 (configuration not stated)	-6.42%
NCc1cn(CC2CCCN(C(=O)NCCc3ccc(F)cc3)C2)nn1 (configuration not stated)	22.7%
CCNC(=O)[C@@H]1C[C@@H](NC(=O)CSC)CN1Cc1ccncc1	-10.5%
CC1c2ncc(CNC(=O)C3CC3)n2CCN1Cc1ccncc1 (configuration not stated)	-16.1%
C=C(C)CN(Cc1cccc(O)c1)C1CCC(O)CC1 (configuration not stated)	-6.84%

SMILES	cytotoxicity at 70.5 h
CN(CCOc1ccc(C#N)cc1)CC1CC1	3.53%
CS(=O)(=O)CCOCCNc1ccc(Br)cn1	-3.34%
C1CCC(CNC2CCCN(Cc3noc(C4CC4)n3)C2)CC1 (configuration not stated)	-15.3%
CCN(CC)C(=O)[C@@H]1C[C@H](N)CN1c1noc(-c2ccccc2)n1	-3.04%
Cc1nc2ccccc2n1Cc1cc(C(=O)N2C[C@@H](C)O[C@@H](C)C2)no1	-8.42%
O=c1nc(SCc2ccncc2)c2c(n1CCO)CCCC2	14.9%
Cc1oc(C(=O)Nc2ccccc2F)cc1S(N)(=O)=O	-10.9%
CCCNC(=O)CN1CCN(c2nc(CC)ns2)CC1	-9.67%
CCCc1cc(=O)[nH]c2nnc(SCC(=O)NC(C)(C)C)n12	-8.6%
COc1nccnc1N1CCC2(CCCN(C(C)C)C2=O)C1 (configuration not stated)	-4.89%
CN(C)[C@@H]1CCN(c2ncccn2)[C@H]1Cc1cccnc1	-3.76%
CCS(=O)(=O)N1CC[C@H](OC)[C@@H]1Cc1ccncc1	3.22%
O=C(c1ccc(C2CCCN2C(=O)c2cscn2)s1)N1CCSCC1 (configuration not stated)	-11.1%
CN(C1CCCN(c2ccccn2)C1)S(=O)(=O)N1CCOCC1 (configuration not stated)	-2.35%
O=S(=O)(Cc1ccc(F)c(Cl)c1)NC(CO)c1ccco1 (configuration not stated)	-11%
Cc1cc(C)nc(C2CCCNC2)n1 (configuration not stated)	17.9%
COCCNc1nc(N2CCCC2)nc2nccnc12	26.5%
CN1[C@H]2CC[C@@H]1CN(C(=O)c1nnc3n1CCCC3)CC2	12.6%
O=C(CN(Cc1ccccc1)CC1CCOCC1)NC(=O)NC1CC1	11.8%
Cc1nc(CN2CCC(c3ccnn3CCO)CC2)oc1C	1.65%
CNC(=O)[C@@]12CCC3(CCN(C(C)=O)CC3)[C@@H]1CN(S(C)(=O)=O)C2	-4.49%

SMILES	cytotoxicity at 70.5 h
COc1cc(F)ccc1NC(=O)NC(C)C(=O)NC(C)(C)C (configuration not stated)	-4.93%
CNC(=O)COc1ccc(CNCc2cc(F)ccc2F)cc1	-2.81%
CCc1ncc2c(n1)CN(CC1CCCCO1)CC2 (configuration not stated)	8.28%
O=C1CN(CCCNC(=O)Nc2ccccn2)CCN1	1.68%
COc1cccc(-n2c(C)cc(C(=O)NS(C)(=O)=O)c2C)c1	-1.93%
O=C(NCc1csc(Br)c1)c1ccc(=O)[nH]n1	-15.6%
COc1cc(Oc2cnc3ccccc3n2)ccc1CN1CCCC1	-3.39%
Cc1nc[nH]c1CN1CCOC(c2ccc(Cl)c(Cl)c2)C1 (configuration not stated)	-2.06%
CN(C)c1ccc(C(=O)N2CCCN(Cc3cnn(C)c3)CC2)nn1	-8.42%
OCC1CCCCN1Cc1cc(O)c2cccc(F)c2n1 (configuration not stated)	20.1%
CN(CCN1CCOC1=O)CC(=O)Nc1ccc(Cl)c(Cl)c1	-20.1%
Cc1cc(NCCS(C)(=O)=O)nc2ccccc12	-1.98%
O=C1[C@@H]2CCN(C3CCC3)C[C@@H]2OCCN1Cc1ccncc1	20.5%
CCC(Nc1nccc(C2CCCC2)n1)c1ncccc1C (configuration not stated)	14.1%
CN1CCCC[C@@H]2[C@H]1[C@@H](c1ccccc1)CCN2S(=O)(=O)N1CCCC1	-1.85%
CC(C)c1cc(C(=O)N2C[C@H]3CC[C@@H]2CN(Cc2cscn2)C3)no1	15.2%
CN(Cc1ccc(-n2cccn2)cc1)Cc1ncc[nH]1	-9.75%
CCC1COCCN1C(=O)NCc1nccn1CC(C)C (configuration not stated)	-15.6%
CC(=O)NCCSCCOc1cccc(Br)c1	17.6%
NC1(c2nc(C(F)(F)F)cc(=O)[nH]2)CCCC1	21.9%
Cc1cc(-c2cnn(C)c2)ccc1OCC(N)=O	-2.62%

SMILES	cytotoxicity at 70.5 h
CCn1ccc(-c2cc(C(=O)O)n3nc(C)c(Cl)c3n2)n1	-9.11%
CN(C)CC(=O)N1Cc2nnn(C)c2C(COCc2ccccn2)C1 (configuration not stated)	9.45%
O=C(c1ccccc1F)N1CCN(c2ccc(-n3cccc3)nn2)CC1	-8.46%
Cc1cnn(CC2CN(Cc3nnc(-c4occc4C)o3)CCO2)c1 (configuration not stated)	-18.4%
Cc1cc(C)nc(N2CCC(C(=O)Nc3n[nH]c(CC(C)C)n3)CC2)n1	-12%
Cc1ccc(C(=O)N2CCC3(CC(N(C)c4ccncn4)C3)C2)cn1 (configuration not stated)	-2.36%
CCN1CCC(N2C[C@H]3OC(=O)N(CCc4cccc(Cl)c4)[C@H]3C2)CC1	-0.155%
Cc1nc(COC(=O)c2cccnc2C)no1	-5.39%
Cc1nc(CC(=O)N2CCC(Nc3cccnn3)CC2)cs1	-6.73%
O=C(CCNC(=O)C1=Cc2ccccc2OC1)Nc1cccnc1	-6.01%
Cc1nn(C)c(C)c1-c1cnc(C2CCCN(S(C)(=O)=O)C2)cn1 (configuration not stated)	-9.63%
O=C(CCc1ccsc1)NCC1CCN(c2ccccc2)C1 (configuration not stated)	2.35%
Cc1n[nH]c(C)c1C(N)C(=O)NCCc1csc(C(C)C)n1 (configuration not stated)	-11.3%
O=C1CC(c2cccc(O)c2)c2c(c(C(=O)O)cn2-c2ccccc2)N1 (configuration not stated)	4.21%
CCN1CCOCC12CCN(C(=O)Cc1ccccc1)CC2	-11.2%
O=S(=O)(N1CCOCC1)N1CCCC(c2ccccn2)C1 (configuration not stated)	-8.61%
O=C(NCCN1CCOCC1)c1cc(Cl)c2c(c1)OCCCO2	-5.1%
CCOCCCC(=O)NCCC(=O)N1CCN(c2ccccn2)CC1	-13.4%
O=c1c2cccc(Cl)c2ncn1C1CCNC1 (configuration not stated)	-10.4%
